Source: US20260274807A1 (University of Health Sciences and Pharmacy in St. Louis, priority 2023, published 2026)

Tests used:
ERRα = target: T1, ERRα (Homo sapiens, UniProt P11474); experiment: ERRE luciferase reporter assay in HEK293 cells transfected with pcDNA3.1 ERRα; format: cell-based; conditions: HEK293 cells transfected with ERRE reporter construct and pcDNA3.1 ERRα; compound for 24 hours; luciferase activity
T1 construct: expressed in transfected cells; host or cells: HEK293
T1 sequence (P11474 1-423): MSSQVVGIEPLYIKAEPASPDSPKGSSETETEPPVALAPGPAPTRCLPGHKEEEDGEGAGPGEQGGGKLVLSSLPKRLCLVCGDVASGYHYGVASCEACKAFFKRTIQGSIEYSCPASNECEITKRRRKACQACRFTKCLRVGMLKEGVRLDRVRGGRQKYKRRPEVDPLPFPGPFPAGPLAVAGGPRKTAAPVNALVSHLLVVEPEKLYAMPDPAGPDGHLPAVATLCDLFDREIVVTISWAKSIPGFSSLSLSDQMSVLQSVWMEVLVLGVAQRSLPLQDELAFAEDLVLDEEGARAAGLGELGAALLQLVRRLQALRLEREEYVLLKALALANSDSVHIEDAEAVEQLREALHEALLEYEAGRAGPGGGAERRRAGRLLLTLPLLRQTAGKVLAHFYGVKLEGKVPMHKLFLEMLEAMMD
Procedure: (§1) HEK293 cells were maintained in Dulbecco's modified Eagles medium (DMEM) supplemented with 10% fetal bovine serum at 37° C. under […]. […] Cells were transfected with ERRE reporter construct and pcDNA3.1 ERRα or ERRγ. Twenty-four-hours post-transfection, the cells were treated with vehicle or compound (various concentrations) for 24 hours (4 wells per dose). Luciferase activity was measured using the One-Glo Tox luciferase reporter assay system (Promega) and EC50s were calculated using GraphPad Prism software.

ERRγ = target: T2, ERRγ (Homo sapiens, UniProt P62508); experiment: ERRE luciferase reporter assay in HEK293 cells transfected with pcDNA3.1 ERRγ; format: cell-based; conditions: HEK293 cells transfected with ERRE reporter construct and pcDNA3.1 ERRγ; compound for 24 hours; luciferase activity
T2 construct: expressed in transfected cells; host or cells: HEK293
T2 sequence (P62508 1-458): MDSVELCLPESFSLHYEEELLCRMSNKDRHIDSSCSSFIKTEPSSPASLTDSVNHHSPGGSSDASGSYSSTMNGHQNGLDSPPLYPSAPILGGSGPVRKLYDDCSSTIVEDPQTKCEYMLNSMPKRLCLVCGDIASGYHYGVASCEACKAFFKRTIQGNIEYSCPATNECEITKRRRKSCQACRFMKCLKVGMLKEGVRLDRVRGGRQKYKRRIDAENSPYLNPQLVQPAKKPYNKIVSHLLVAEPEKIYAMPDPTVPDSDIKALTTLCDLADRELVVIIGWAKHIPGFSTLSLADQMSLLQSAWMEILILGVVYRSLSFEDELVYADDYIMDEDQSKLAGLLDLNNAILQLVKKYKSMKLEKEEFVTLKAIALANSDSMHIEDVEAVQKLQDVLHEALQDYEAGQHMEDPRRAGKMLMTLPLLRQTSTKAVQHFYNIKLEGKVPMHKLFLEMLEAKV
Procedure: as §1

Row | SMILES | EC50 (ERRα) | EC50 (ERRγ)
1 | COC(=O)c1ccc(-c2nnc(-c3ccccc3Cl)s2)cc1 [Entry 1051, methyl 4-(5-(2-chlorophenyl)-1,3,4-thiadiazol-2-yl)benzoate] | < 1 µM | < 1 µM
2 | Cc1ccc(-c2nnc(-c3ccccc3Cl)o2)cc1 [Entry 40, 2-(2-chlorophenyl)-5-(p-tolyl)-1,3,4-oxadiazole] | < 1 µM | < 1 µM
3 | Cc1ccc(-c2nnc(-c3cccc4ncccc34)s2)cc1 [Entry 1058, 2-(quinolin-5-yl)-5-(p-tolyl)-1,3,4-thiadiazole] | < 1 µM | < 1 µM
4 | Cc1ccc(-c2nnc(-c3ccccc3[N+](=O)[O-])s2)cc1 [Entry 1005, 2-(2-nitrophenyl)-5-(p-tolyl)-1,3,4-thiadiazole] | < 1 µM | < 1 µM
5 | Oc1ccc(-c2nnc(-c3ccc4ccccc4c3)s2)cc1 [Entry 1046, 4-(5-(naphthalen-2-yl)-1,3,4-thiadiazol-2-yl)phenol] | < 1 µM | < 1 µM
6 | Cc1ccc(-c2nnc(-c3ccccc3)o2)cc1 [Entry 4, 2-phenyl-5-(p-tolyl)-1,3,4-oxadiazole] | < 1 µM | < 1 µM
7 | Cc1ccc(-c2nnc(-c3ccc(C(F)(F)F)cc3)o2)o1 [Entry 45, 2-(5-methylfuran-2-yl)-5-(4-(trifluoromethyl)phenyl)-1,3,4-oxadiazole] | 1 to 5 µM | > 5 µM
8 | Cc1ccc(-c2nnc(-c3ccc([N+](=O)[O-])cc3)o2)cc1 [Entry 39, 2-(4-nitrophenyl)-5-(p-tolyl)-1,3,4-oxadiazole] | < 1 µM | < 1 µM
9 | COc1ccc(-c2nnc(-c3ccc(C)o3)o2)cc1 [Entry 19, 2-(4-methoxyphenyl)-5-(5-methylfuran-2-yl)-1,3,4-oxadiazole] | < 1 µM | < 1 µM
10 | Cc1ccc(-c2nnc(-c3ccccc3)s2)cc1 [Entry 1002, 2-phenyl-5-(p-tolyl)-1,3,4-thiadiazole] | < 1 µM | < 1 µM
11 | COc1ccc(-c2nnc(-c3ccc4ccccc4n3)o2)cc1 [Entry 23, 2-(4-methoxyphenyl)-5-(quinolin-2-yl)-1,3,4-oxadiazole] | < 1 µM | < 1 µM
12 | Cc1cccc(-c2nnc(-c3ccccc3)o2)c1[N+](=O)[O-] [Entry 89, 2-(3-methyl-2-nitrophenyl)-5-phenyl-1,3,4-oxadiazole] | < 1 µM | < 1 µM
13 | COc1ccc(-c2nnc(-c3ccccc3Cl)o2)cc1 [Entry 28, 2-(2-chlorophenyl)-5-(4-methoxyphenyl)-1,3,4-oxadiazole] | < 1 µM | < 1 µM
14 | Cc1ccc(-c2nnc(-c3ccccc3[N+](=O)[O-])o2)o1 [Entry 76, 2-(5-methylfuran-2-yl)-5-(2-nitrophenyl)-1,3,4-oxadiazole] | 1 to 5 µM | 1 to 5 µM
15 | c1ccc(-c2nnc(-c3ccc4ccccc4n3)o2)cc1 [Entry 14, 2-phenyl-5-(quinolin-2-yl)-1,3,4-oxadiazole] | > 5 µM | > 5 µM
16 | FC(F)(F)c1cccc(-c2nnc(-c3cccs3)o2)c1 [Entry 58, 2-(thiophen-2-yl)-5-(3-(trifluoromethyl)phenyl)-1,3,4-oxadiazole] | < 1 µM | < 1 µM
17 | c1ccc(-c2nnc(-c3ccccc3)o2)cc1 [Entry 1] | < 1 µM | < 1 µM
18 | c1ccc(-c2ccc(Cc3nnc(-c4ccccc4)s3)cc2)cc1 [Entry 1039, 2-([1,1′-biphenyl]-4-ylmethyl)-5-phenyl-1,3,4-thiadiazole] | > 5 µM | > 5 µM
19 | FC(F)(F)c1ccc(-c2nnc(-c3ccco3)o2)cc1 [Entry 44, 2-(furan-2-yl)-5-(4-(trifluoromethyl)phenyl)-1,3,4-oxadiazole] | 1 to 5 µM | 1 to 5 µM
20 | FC(F)(F)c1ccc(-c2nnc(-c3ccccc3)o2)cc1 [Entry 43, 2-phenyl-5-(4-(trifluoromethyl)phenyl)-1,3,4-oxadiazole] | 1 to 5 µM | 1 to 5 µM

Row | SMILES | EC50 (ERRα) | EC50 (ERRγ)
21 | COc1ccc(-c2nnc(-c3ccccc3N)o2)cc1 [Entry 74, 2-(5-(4-methoxyphenyl)-1,3,4-oxadiazol-2-yl)aniline] | < 1 µM | < 1 µM
22 | Cc1ccc(-c2nnc(-c3scnc3C)s2)cc1 [Entry 1080, 2-(4-methylthiazol-5-yl)-5-(p-tolyl)-1,3,4-thiadiazole] | < 1 µM | < 1 µM
23 | Cc1ccc(-c2nnc(-c3ccc(C)o3)s2)cc1 [Entry 1029, 2-(5-methylfuran-2-yl)-5-(p-tolyl)-1,3,4-thiadiazole] | 1 to 5 µM | < 1 µM
24 | c1ccc(Cc2nnc(-c3ccccc3)s2)cc1 [Entry 1038, 2-benzyl-5-phenyl-1,3,4-thiadiazole] | 1 to 5 µM | 1 to 5 µM
25 | Cc1ccc(-c2nnc(-c3cncs3)s2)cc1 [Entry 1082, 2-(thiazol-5-yl)-5-(p-tolyl)-1,3,4-thiadiazole] | < 1 µM | < 1 µM
26 | FC(F)(F)c1cccc(-c2nnc(-c3ccc4ccccc4n3)o2)c1 [Entry 60, 2-(quinolin-2-yl)-5-(3-(trifluoromethyl)phenyl)-1,3,4-oxadiazole] | 1 to 5 µM | 1 to 5 µM
27 | Clc1ccccc1-c1nnc(-c2cccc3ncccc23)s1 [Entry 1059, 2-(2-chlorophenyl)-5-(quinolin-5-yl)-1,3,4-thiadiazole] | < 1 µM | < 1 µM
28 | CC(C)(C)c1ccc(-c2nnc(-c3ccccc3[N+](=O)[O-])s2)cc1 [Entry 1016, 2-(4-(tert-butyl)phenyl)-5-(2-nitrophenyl)-1,3,4-thiadiazole] | < 1 µM | < 1 µM
29 | O=[N+]([O-])c1cccc(-c2nnc(-c3cccc(C(F)(F)F)c3)o2)c1 [Entry 63, 2-(3-nitrophenyl)-5-(3-(trifluoromethyl)phenyl)-1,3,4-oxadiazole] | 1 to 5 µM | > 5 µM
30 | Cc1cccc(-c2nnc(-c3cccc(C(F)(F)F)c3)s2)n1 [Entry 1073, 2-(6-methylpyridin-2-yl)-5-(3-(trifluoromethyl)phenyl)-1,3,4-thiadiazole] | > 5 µM | 1 to 5 µM
31 | CC(C)(C)c1ccc(-c2nnc(-c3ccccc3[N+](=O)[O-])o2)cc1 [Entry 83, 2-(4-(tert-butyl)phenyl)-5-(2-nitrophenyl)-1,3,4-oxadiazole] | < 1 µM | < 1 µM
32 | COc1ccc(-c2nnc(-c3cccc(OC)c3)o2)cc1 [Entry 29, 2-(3-methoxyphenyl)-5-(4-methoxyphenyl)-1,3,4-oxadiazole] | < 1 µM | < 1 µM
33 | Cc1ccc(-c2nnc(-c3cccs3)o2)cc1 [Entry 33, 2-(thiophen-2-yl)-5-(p-tolyl)-1,3,4-oxadiazole] | < 1 µM | < 1 µM
34 | Cc1ccc(-c2nnc(-c3cnn(-c4ccccc4)c3)s2)cc1 [Entry 1053, 2-(1-phenyl-1H-pyrazol-4-yl)-5-(p-tolyl)-1,3,4-thiadiazole] | > 5 µM | < 1 µM
35 | Cc1ccc(-c2nnc(-c3ccnc4ccccc34)s2)cc1 [Entry 1025, 2-(quinolin-4-yl)-5-(p-tolyl)-1,3,4-thiadiazole] | < 1 µM | < 1 µM
36 | FC(F)(F)c1cccc(-c2nnc(-c3ccccn3)o2)c1 [Entry 61, 2-(pyridin-2-yl)-5-(3-(trifluoromethyl)phenyl)-1,3,4-oxadiazole] | < 1 µM | < 1 µM
37 | COc1ccc(-c2nnc(-c3ccco3)s2)cc1 [Entry 1019, 2-(furan-2-yl)-5-(4-methoxyphenyl)-1,3,4-thiadiazole] | < 1 µM | < 1 µM
38 | COc1ccc(-c2nnc(-c3cccs3)o2)cc1 [Entry 20, 2-(4-methoxyphenyl)-5-(thiophen-2-yl)-1,3,4-oxadiazole] | < 1 µM | < 1 µM
39 | COc1ccc(-c2nnc(-c3ccnc4ccccc34)o2)cc1 [Entry 22, 2-(4-methoxyphenyl)-5-(quinolin-4-yl)-1,3,4-oxadiazole] | < 1 µM | < 1 µM
40 | COc1ccc([N+](=O)[O-])c(-c2nnc(-c3ccccc3)s2)c1 [Entry 1035, 2-(5-methoxy-2-nitrophenyl)-5-phenyl-1,3,4-thiadiazole] | 1 to 5 µM | 1 to 5 µM
